According to US9340532B2, “Methods and compositions for inhibiting CNKSR1” (PHUSIS THERAPEUTICS, INC., priority 2012, dated 2016):
Read-outs that look alike come from different tables or passages of the source.

How the values were obtained:
[1] = system: mut-KRAS NSCLC cell lines; test: Screening against NSCLC cell line panel, mut-KRAS lines; type: cell-based; conditions: for inhibition of mut-KRAS cell growth (in words): FIG. 3 and FIG. 5
Description: (§1) The isogenic KRAS lines harboring G12D, G12C, and G12V were obtained from Horizon Discovery labs on a one year lease. These cells were cultured in McCoys media with 10% FBS to 80% confluency. Cells were then released from flasks via trypsinization and plated into 96-well plates at an initial density range of 2000 cells per well. Cells were allowed 24 hours to attach, and then the agents were added to the culture media at a range of concentrations from 0-100 μM. Cells were incubated for 72 hours with the drugs, and then viability was assessed using an MTS viability assay. Cells were exposed to MTS reagent (Promega) dissolved in PBS (Hyclone) at a concentration of 200 μL reagent/mL media for 2 hours. Absorbance was then read at 490 nm, and viability was expressed as a percentage normalized between the negative control (no cells plated) and the condition of cells with no drug added (100% viability) normalized as the upper limit of viability.
(§2) Our panel of 30 cell lines and an extensive characterization were obtained from Dr. John Minna (UTSW). All cell lines were cultured in RPMI 1640 with 10% FBS. Cells were treated with concentrations of agents at concentrations 0.01 to 50 μM and evaluated as described above. IC50's were determined using Excelfit.

AKT1 PH-domain = molecular target: T1, AKT1 PH-domain (Homo sapiens, UniProt P31749); test: SPR binding assay (Biacore T100), AKT1 PH-domain; conditions: for Kd: read-out: AKT KD; for AKT KD: Table 7, curated diversity set
T1 construct: The PH-domain His-fusion proteins (CNK1 and AKT1) were expressed and immobilized on a NTA chip; made in house
Description: (§3) All interaction analyses were done with a Biacore T100 Control Software v3.2, and BIAevaluation v4.1 analysis software (Biacore). The PH-domain His-fusion proteins (CNK1 and AKT1) were expressed and immobilized on a NTA chip to a level of 10,000 response units or less. Small molecule analytes at concentrations ranging from 50 μM to 0.010 μM were injected at a high flow rate (30 μL/min) DMSO concentrations in all samples and running buffer were 1-5% (v/v).
A commercially available docking package, GOLD (GOLD [3.2], CCDC: Cambridge, UK, 2007) was used to evaluate the docking of compounds 1-7 into the binding pocket, see e.g. Table 5. Other docking was performed using modeling algorithms with state-of-the-art commercial drug discovery software (Schrodinger suite). GLIDE was chosen as the docking algorithm used to select and optimize compounds, providing a GlideScore as a rough estimate of binding affinity that was used to rank and select the best compounds. Additionally, ligand-based approaches provided an alternative to structure based drug discovery. Ligand-based virtual screening methodologies can take into account shape and electrostatics (like ROCS) and the pharmacophoric features (acceptor, donor, hydrophobic, aromatic, etc.) of its functional groups. Inositol tetraphosphate (IP4) binding to the PH-domain of CNKSR1 provided a good starting point for shape screening. Both structure-based and ligand-based approaches were used to find novel compounds (Table 7) and to refine and improve lead compounds (Tables 8, and 9). SPR interaction analyses for Compounds 1 through 7 were performed with a Biacore 2000, using Biacore2000 Control Software v3.2 and BIAevaluation v4.1 analysis software (Biacore) as described in Mol Cancer Ther 7:2621 (2008). SPR interaction analyses of all other compounds was undertaken using a Biacore T100 with Control and Evaluation software kit.

[2] = system: A549 (KRAS mutant cell line); test: Proliferation Assay A549; type: cell-based; conditions: Homo sapiens, N = 2 experiments
Description: as §1, §2

[3] = system: H1975 (KRAS wildtype cell line); test: Proliferation Assay H1975; type: cell-based; conditions: Homo sapiens, NCI-H1975, n = 1
Description: as §1, §2

CNK1 PH-domain (CNKSR1) = molecular target: T2, CNK1 PH-domain (CNKSR1) (Homo sapiens, UniProt Q969H4); test: SPR binding assay (Biacore T100), CNK1 PH-domain; conditions: for Surface Plasmon Resonance CNKSR1 binding (RU max) / Surface Plasmon Resonance CNKSR1 stability (RU max post-injection): date 12 09 13
T2 construct: The PH-domain His-fusion proteins (CNK1 and AKT1) were expressed and immobilized on a NTA chip; made in house
T2 sequence (Q969H4 403-502 limits assumed): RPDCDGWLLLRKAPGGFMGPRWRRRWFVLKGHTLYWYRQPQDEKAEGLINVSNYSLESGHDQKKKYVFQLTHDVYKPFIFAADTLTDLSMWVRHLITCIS
Description: as §3
Other docking was performed using modeling algorithms with state-of-the-art commercial drug discovery software (Schrodinger suite). […] Additionally, ligand-based approaches provided an alternative to structure based drug discovery. Ligand-based virtual screening methodologies can take into account shape and electrostatics (like ROCS) and the pharmacophoric features (acceptor, donor, hydrophobic, aromatic, etc.) of its functional groups. […] SPR interaction analyses of all other compounds was undertaken using a Biacore T100 with Control and Evaluation software kit.

[4] = system: H1373 (KRAS mutant cell line); test: Proliferation Assay H1373; type: cell-based; conditions: Homo sapiens, NCI-H1373, N = 2 experiments
Description: as §1, §2

[5] = Mouse pharmacokinetics (iv); type: in vivo; conditions: for clearance: in vivo
[6] = system: H226 (KRAS wildtype cell line); test: Proliferation Assay H226; type: cell-based; conditions: Homo sapiens, NCI-H226, n = 1
Description: as §1, §2

wt-KRAS NSCLC cell lines = test: Screening against NSCLC cell line panel, wt-KRAS lines; type: cell-based; conditions: for inhibition of wt-KRAS cell growth (in words): FIG. 5
Description: as §1, §2

[7] = Table 5, read-out: Mean IC50 mut-KRAS
[8] = Table 6, mean of 3 wt-KRAS lines, read-out: NSCL cell line cytotoxicity IC50 wt-KRAS
[9] = Table 6, mean of 3 mut-KRAS lines, read-out: NSCL cell line cytotoxicity IC50 mut-KRAS
[10] = Table 7, read-out: IC50 WT-KRAS
[11] = Table 7, read-out: IC50 mut-KRAS

T1 sequence (P31749 5-108 limits assumed): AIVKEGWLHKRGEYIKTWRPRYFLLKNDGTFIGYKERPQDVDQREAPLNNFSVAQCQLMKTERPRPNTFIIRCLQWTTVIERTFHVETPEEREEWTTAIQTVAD

SMILES | IC50 [2] [µM] | IC50 [3] [µM] | Surface Plasmon Resonance CNKSR1 binding (RU max) (CNK1 PH-domain (CNKSR1)) [RU * 100/Da] | Surface Plasmon Resonance CNKSR1 stability (RU max post-injection) (CNK1 PH-domain (CNKSR1)) [RU * 100/Da] | IC50 [4] [µM] | IC50 [6] [µM] | Kd (AKT1 PH-domain; Table 8) [µM] | also measured
O=C(CSc1nnnn1-c1cccc(Cl)c1)c1cc2ccccc2o1 [Compound 121] |  |  |  |  |  |  |  | IC50 [1, 7]: 46.7 ± 3.3 µM
CCNC(=O)Cc1nn(Cc2nc(-c3ccc(C)cc3)cs2)c(=O)c2ccccc12 [Compound 78] | 25 | 60 | 0.224 | −0.065 | 45 | 60 |  | Kd (AKT1 PH-domain; Table 6): 2.53 µM; Kd (CNK1 PH-domain (CNKSR1); Table 6, read-out: CNKS KD): 0.65 µM; t1/2β [5]: 0.467 h; clearance [5]: 34 mL/min/kg
Cc1ccc(-c2csc(Cn3nc(Cc4nccs4)c4ccccc4c3=O)n2)cc1 [Compound 10] |  |  |  |  |  |  |  | inhibition of wt-KRAS cell growth (in words) (wt-KRAS NSCLC cell lines): also inhibited; IC50 (wt-KRAS NSCLC cell lines; [8]): 46 µM; inhibition of mut-KRAS cell growth (in words) [1]: inhibited the growth; selectivity for mut-KRAS cells compared to wt-KRAS cells ([1]; NSCLC cell lines): approximately two fold; IC50 [1, 9]: 34 µM; Kd (CNK1 PH-domain (CNKSR1); Table 6, read-out: CNKS KD): 4.12 µM; t1/2β [5]: 4.08 h; clearance [5]: 119 mL/min/kg
N#Cc1cnn(-c2ccccc2)c1NC(=O)CSc1nnc(-c2ccco2)n1-c1ccc(F)cc1 [Compound 122] |  |  |  |  |  |  |  | IC50 [1, 7]: > 50 µM
O=S(=O)(Nc1n[nH]c(SCc2ccc(Cl)cc2)n1)c1ccc(-c2ccccn2)s1 [Compound 118] |  |  |  |  |  |  |  | IC50 [1, 7]: 49.3 ± 0.6 µM
CSc1sc(C#N)c(C)c1-c1ccn(S(=O)(=O)c2ccc(Cl)cc2)n1 [Compound 117] |  |  |  |  |  |  |  | IC50 [1, 7]: 21.9 ± 5.7 µM
Cc1ccc(-c2csc(Cn3nc(CC=O)c4ccccc4c3=O)n2)cc1 [Compound 79] |  |  |  |  |  |  |  | Kd (CNK1 PH-domain (CNKSR1); Table 6, read-out: CNKS KD): 4.2 µM; t1/2β [5]: 0.583 h; clearance [5]: 30 mL/min/kg
CCOC(=O)CCc1cc(NS(=O)(=O)c2cccs2)c2c(c1OC)OCO2 [Compound 85, ethyl 3-(4-methoxy-7-(thiophene-2-sulfonamido)benzo[d][1,3]dioxol-5-yl)propanoate] | > 100 | > 100 | 1.026 | 1.515 | > 100 | > 100 | > 500 | Kd (CNK1 PH-domain (CNKSR1); Table 8, read-out: CNK KD): > 500 µM
O=C(O)CSc1cc(NS(=O)(=O)c2cccs2)c2ccccc2c1O [Compound 12] |  |  |  |  |  |  |  | AKT KD (AKT1 PH-domain): Bound; inhibition of wt-KRAS cell growth (in words) (wt-KRAS NSCLC cell lines): more potently than compound 7 or its analogs; IC50 (wt-KRAS NSCLC cell lines; [10]): 12 µM; inhibition of mut-KRAS cell growth (in words) [1]: more potently than compound 7 or its analogs; IC50 [1, 11]: 17 µM
Cc1ccc(-c2nc(SCC(=O)O)c3c(=O)n(C)c(=O)n(C)c3n2)cc1 [Compound 61] |  |  |  |  |  |  |  | IC50 (wt-KRAS NSCLC cell lines; [10]): > 100 µM; IC50 [1, 11]: > 100 µM
O=C(O)c1ccc2c(c1)C1C=CCC1C(C(=O)O)N2 (stereo not shown) [Compound 56] |  |  |  |  |  |  |  | IC50 (wt-KRAS NSCLC cell lines; [10]): > 100 µM; IC50 [1, 11]: > 100 µM
Cc1ccc(-c2csc(Cn3nc(CC4OCC(=O)O4)c4ccccc4c3=O)n2)cc1 (stereo not shown) [Compound 11] |  |  |  |  |  |  |  | Kd (AKT1 PH-domain; Table 6): 2.53 µM; inhibition of wt-KRAS cell growth (in words) (wt-KRAS NSCLC cell lines): also inhibited; IC50 (wt-KRAS NSCLC cell lines; [8]): 56 µM; inhibition of mut-KRAS cell growth (in words) [1]: inhibited the growth; IC50 [1, 9]: 45 µM; Kd (CNK1 PH-domain (CNKSR1); Table 6, read-out: CNKS KD): 0.27 µM
O=C(O)COc1cc(OCC(=O)O)c2c3c(c(=O)oc2c1)CCCC3 [Compound 76] |  |  |  |  |  |  |  | AKT KD (AKT1 PH-domain): Bound; IC50 (wt-KRAS NSCLC cell lines; [10]): > 100 µM; IC50 [1, 11]: > 100 µM
Cc1ccc(-c2csc(Cn3nc(NS(=O)(=O)c4cccs4)c4ccccc4c3=O)n2)cc1 [Compound 5] | 90 | 80 | −0.695 | −0.158 | > 100 | > 100 |  | Kd (AKT1 PH-domain; Table 6): 34.2 µM; Kd (CNK1 PH-domain (CNKSR1); Table 6, read-out: CNKS KD): 51.3 µM
Cc1ccc(-c2csc(Cn3nc(CC(=O)N4CCN(C)CC4)c4ccccc4c3=O)n2)cc1 [Compound 123] |  |  |  |  |  |  |  | t1/2β [5]: 5.45 h; clearance [5]: 31 mL/min/kg
Cn1c(Cc2nn(C)c(=O)c3ccccc23)nnc1SCC(=O)c1ccc(Cl)cc1Cl [Compound 119] |  |  |  |  |  |  |  | IC50 [1, 7]: > 50 µM

More lines, main results first:

IC50 [2] [µM] | IC50 [3] [µM] | Surface Plasmon Resonance CNKSR1 binding (RU max) (CNK1 PH-domain (CNKSR1)) [RU * 100/Da] | Surface Plasmon Resonance CNKSR1 stability (RU max post-injection) (CNK1 PH-domain (CNKSR1)) [RU * 100/Da] | IC50 [4] [µM] | IC50 [6] [µM] | Kd (AKT1 PH-domain; Table 8) [µM] | SMILES | also measured
27 | > 100 | 0.217 | 0.032 | 28 | 65 | 178 | CSc1c(N)cc(O)c(O)c1/C=C/C(=O)O [Compound 110, (2E)-3-[3-amino-5,6-dihydroxy-2-(methylsulfanyl)phenyl]prop-2-enoic acid] | 
55 | > 100 | −0.928 | 0.511 | 58 | 70 | 13.5 | CSc1c(NS(=O)(=O)c2cccs2)cc(O)c(O)c1/C=C/C(=O)O [Compound 106, (2E)-3-[2,3-dihydroxy-6-(methylsulfanyl)-5-(thiopliene-2-sulfonamido)phenyl]prop-2-enoic acid] | Kd (CNK1 PH-domain (CNKSR1); Table 8, read-out: CNK KD): 0.614 µM
> 100 | > 100 | −0.807 | −0.197 | > 100 | > 100 | > 500 | CCOC(=O)/C=C/c1cc(NS(=O)(=O)c2cccs2)c2c(c1OC)OCO2 [Compound 86, (E)-ethyl 3-(4-methoxy-7-(thiophene-2-sulfonamido)benzo[d][1,3]dioxol-5-yl)acrylate] | Kd (CNK1 PH-domain (CNKSR1); Table 8, read-out: CNK KD): 123 µM
30 | 100 | −0.024 | 0.056 | 38 | 55 | 133 | COc1cc(N)c(SC)c(/C=C/C(=O)O)c1O [Compound 108, (2E)-3-[3-amino-6-hydroxy-5-methoxy-2-(methylsulfanyl)phenyl]prop-2-enoic acid] | Kd (CNK1 PH-domain (CNKSR1); Table 8, read-out: CNK KD): 72.5 µM
> 100 | > 100 | 1.527 | 0.168 | > 100 | > 100 | 140 | CCOC(=O)/C=C/c1c(O)c(O)cc(N)c1SC [Compound 109, ethyl (2E)-3-[3-amino-5,6-dihydroxy-2-(methylsulfanyl)phenyl]prop-2-enoate] | Kd (CNK1 PH-domain (CNKSR1); Table 8, read-out: CNK KD): 19.2 µM
100 | > 100 | −0.676 | −0.197 | 42 | 70 | 6.22 | CCOC(=O)/C=C/c1c(O)c(O)cc(NS(=O)(=O)c2cccs2)c1SC [Compound 105, ethyl (2E)-3-[2,3-dihydroxy-6-(methylsulfanyl)-5-(thiophene-2-sulfonamido)phenyl]prop-2-enoate] | Kd (CNK1 PH-domain (CNKSR1); Table 8, read-out: CNK KD): 2.86 µM
